From patent US20230173029A1, “TREATMENT OF CARDIAC REMODELLING” (UNIVERSITETET I OSLO, priority 2020, published 2023)

How the values were obtained:
Format in all cases: in vivo, rat
[1] = tested on: Dahl salt-sensitive (Dahl/SS) male rats; assay: Tail-cuff blood pressure measurement in hypertensive Dahl/SS rats; settings: for DBP (diastolic blood pressure) / MAP (mean arterial pressure) / SBP (systolic blood pressure): HT Dahl/SS rats on high salt diet, at 6 weeks, mean ± SEM
Description: (§1) A total of 29 adult Dahl salt-sensitive (Dahl/SS) male rats with an initial weight of 150 to 200 g were included in the study. Rats were purchased from Charles River Laboratories (USA) and housed in a room with a 12/12-hour light cycle, a temperature of 21° C., and a humidity of 55%. Rats were maintained on a normal salt diet up to seven weeks of age. Twenty-two Dahl/SS were then randomly switched to a high salt diet for 6 weeks to induce hypertension, whilst 7 rats were kept normotensive (NT) on normal salt diet. Drinking water and food was provided ad libitum.
After 2 weeks of high salt diet, 15 hypertensive (HT) rats were started on treatment with proANP31-67. Rats treated with proANP31-67 received one of two dosages: 50 ng/kg/day (n=8) or 100 ng/kg/day (n=7). A total of 14 rats received only vehicle: control rats on a normal salt diet (n=7); and HT rats on a high salt diet (n=7). Rats were randomly assigned to the 3 groups (i.e. control normal salt; high salt untreated; high salt plus treatment).
Drug or vehicle was delivered via Alzet osmotic mini-pumps (Model 2004; mean pumping rate […], mean fill volume […]) implanted subcutaneously (as instructed by the manufacturer) for 28 days. Animals were treated with buprenorphine (0.05 mg/kg s.c.) as analgesic 30 minutes before and up to 1 day following implantation of pumps.
Measurement was carried out using the CODA non-invasive blood pressure acquisition system for rats (Kent Scientific Corporation). Animals were kept in restraint tubes and placed over a heating platform (preheated to 33 to 35° C.) and blood pressure measured by a tail-cuff system. Each recording session consisted of 25 acclimation cycles (not used in the analysis), followed by 20 inflation and deflation cycles (the occlusion cuff is inflated to 250 mm Hg and deflated over 20 s). Rats were trained for at least 5 consecutive days before blood pressure measurements were recorded.
Experiments were performed as described above in Example 1, using a group of 8 Dahl/SS rats which, at 7 weeks of age, were switched to a high salt diet as described above. After 2 weeks of high salt diet, this group was started on proANP31-67 treatment. The rats were administered proANP31-67 at a renal sub-therapeutic dosage of 25 ng/kg/day.

SMAD2 = assay: Western blot of nuclear phosphorylated SMAD2 in left ventricle tissue; settings: HT Dahl/SS rats, 50 or 100 ng/kg/day s.c. (pooled), FIG. 2E
Description: as §1
(§2) After 2 weeks of high salt diet, 15 hypertensive (HT) rats were started on treatment with proANP31-67. […]
Enriched nuclear protein fraction from left ventricle tissue was isolated using Compartment Protein Extraction Kit (Merck Millipore, Cat. #2145), according to the manufacturer's specifications. Protein concentration was measured by BCA assay kit (Thermo Fisher Scientific, Cat. #23225). […] Membranes were analysed with rabbit anti-SMAD2/3 (1:1000, Cell Signaling Technology, Cat. #8685) and rabbit anti-phospho-SMAD2 (Ser465/467) (1:500, Cell Signaling Technology, Cat. #3108). The membranes were developed using the ECL system (Pierce Protein Research Products) and ChemiDoc XRS (Bio-Rad), and quantified using Image Lab™ software (version 6.0.1, Bio-Rad).

[2] = tested on: Dahl salt-sensitive (Dahl/SS) male rats; assay: Histochemistry of left ventricle collagen deposition (Masson's trichrome) and collagen cross-linking (Picrosirius Red); settings: HT Dahl/SS rats, 50 or 100 ng/kg/day s.c. (pooled), not significant, FIG. 2
Description: as §1, §2
Hearts were excised, rinsed in PBS, quickly blotted on gauze, and then fixed in 10% formalin for a minimum of 24 hr. […] Stained sections were scanned (20× magnification) with AxioScan Z1 (Carl Zeiss), to obtain whole cross-sections for collagen quantification. Total fibrosis area (%) and perivascular fibrosis (ratio of the area of fibrosis surrounding the vessel wall to the lumen area) were quantified using ZEN2 blue edition (Zeiss, Jena, Germany). […] The degree of cross-linked collagen was calculated as the ratio between cross-linked collagen and total collagen. All histological quantifications were independently performed by three trained researchers blinded to rat groups.

[3] = tested on: Dahl salt-sensitive (Dahl/SS) male rats; assay: Renal function and structure in hypertensive Dahl/SS rats (data not shown); settings: HT Dahl/SS rats
[4] = 50 or 100 ng/kg/day s.c. (pooled) for 28 days

## proANP31-67: Human proANP31-67, linear peptide fragment of proANP consisting of SEQ ID NO: 1; also known as vessel dilator, VSDL (EVVPPQVLSEPNEEAGAALSPLPEVPPWTGEVSPAQR; listed as Homo sapiens)
[1]; 25 ng/kg/day s.c.
  DBP (diastolic blood pressure): 120.1 ± 4.7 mmHg
  MAP (mean arterial pressure): 138.6 ± 4.1 mmHg
  SBP (systolic blood pressure): 176.5 ± 3.4 mmHg
[1]; [4]
  DBP (diastolic blood pressure): 128.2 ± 2.3 mmHg
  MAP (mean arterial pressure): 144.9 ± 2.3 mmHg
  SBP (systolic blood pressure): 179.3 ± 2.4 mmHg
[1]; HT Dahl/SS rats, 25 ng/kg/day s.c., FIG. 5A
  effect on systolic blood pressure: no effect
[1]; HT Dahl/SS rats, 50 or 100 ng/kg/day s.c. (pooled), FIG. 1A
  effect on elevated systolic blood pressure: not lowered
SMAD2
  SMAD2 phosphorylation (nuclear) compared to untreated HT rats: significantly lower
[2]
  increase of interstitial LV fibrosis compared to NT rats: 14%
  increase of perivascular LV fibrosis compared to NT rats: 35%
[3]; 25 ng/kg/day s.c.
  protective effects on renal function: not to display the protective effects on renal function
[3]; 50 or 100 ng/kg/day s.c., data not shown
  effects on renal function and structure: protective effects on renal function and structure
